Reference: patent US20250090699A1, “FAP TARGETING CYCLIC PEPTIDES AND CONJUGATES THEREOF” (Novartis AG, priority 2023, published 2025)
Starred links: 1 amine or outer side, 2 acyl side, 3 side chain; linkers in the order of their positions; H or OH if unused. Positions of bridges follow the written chain, without caps; N, C: chain ends. Non-standard residues stand in square brackets, D forms with d. Residues, ends and D or L forms follow the SMILES beside them. Groups on a side chain read outwards from the residue. Chains are numbered I, II in the order given. *: point of attachment. X2 = O=C(O)CN1CCN(CC(=O)O)CCN(CC(=O)NC(CC(=O)NCCOCCOCCOCC(=O)[*:1])CC(=O)NCCOCCOCCOCC(=O)[*:2])CCN(CC(=O)O)CC1; X1 = O=C(O)CN1CCN(CC(=O)O)CCN(CC(=O)NC(CC(=O)NCCOCCOCC(=O)[*:1])CC(=O)NCCOCCOCC(=O)[*:2])CCN(CC(=O)O)CC1; DOTA(Lu) = O=C1CN2CCN3CCN(CC(=O)*)CCN(CC2)CC(=O)[O][Lu]([O]1)[O]C(=O)C3; Phe(4-CH2NH2) = NCc1ccc(C[C@H](N)C(=O)O)cc1; Piperazinyl(4-CH2COOH) = O=C(O)CN1CCN(*)CC1; AEF = NCCOc1ccc(C[C@H](N)C(=O)O)cc1; Nicotinoyl(6-F) = O=C(c1ccc(F)nc1)*; NMeF = CN[C@@H](Cc1ccccc1)C(=O)O; Ahp(2) = CCCCC[C@H](N)C(=O)O; hSer = N[C@@H](CCO)C(=O)O; AEEA = NCCOCCOCC(=O)O; CO = O=C([*:1])[*:2]; Propyl = CCC*

How the values were obtained:
human FAP [1] = biological target: T1, human FAP (Homo sapiens, UniProt Q12884); experiment: Enzymatic FAP competition assay (Z-Gly-Pro-AMC fluorescence), human FAP; assay type: biochemical; conditions: read-out: h. FAP, Enz., IC50
T1 construct: the biotinylated His, Avi tag, human FAP (26-760, FAP-H82Q6); His; Avi tag (biotinylated); purchased AcroBiosystems FAP-H82Q6
T1 sequence (Q12884 26-760): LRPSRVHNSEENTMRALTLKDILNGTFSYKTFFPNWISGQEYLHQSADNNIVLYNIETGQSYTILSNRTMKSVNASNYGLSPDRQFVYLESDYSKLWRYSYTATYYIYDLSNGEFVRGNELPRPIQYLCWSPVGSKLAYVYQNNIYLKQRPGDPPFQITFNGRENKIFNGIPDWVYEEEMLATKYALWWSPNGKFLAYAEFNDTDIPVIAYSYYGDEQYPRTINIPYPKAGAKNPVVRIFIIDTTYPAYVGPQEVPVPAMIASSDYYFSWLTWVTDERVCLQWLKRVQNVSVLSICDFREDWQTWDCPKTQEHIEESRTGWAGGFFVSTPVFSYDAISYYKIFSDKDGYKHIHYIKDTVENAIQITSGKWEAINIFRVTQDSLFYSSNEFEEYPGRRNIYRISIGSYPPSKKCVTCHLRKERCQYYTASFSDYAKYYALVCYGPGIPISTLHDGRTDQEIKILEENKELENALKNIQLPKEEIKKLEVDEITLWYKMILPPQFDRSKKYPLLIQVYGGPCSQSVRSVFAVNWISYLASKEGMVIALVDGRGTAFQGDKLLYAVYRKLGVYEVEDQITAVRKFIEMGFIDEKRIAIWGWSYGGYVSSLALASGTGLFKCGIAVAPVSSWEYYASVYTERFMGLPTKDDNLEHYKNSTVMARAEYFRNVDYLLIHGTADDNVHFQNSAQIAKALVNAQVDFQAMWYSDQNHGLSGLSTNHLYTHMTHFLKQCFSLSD
How it was run: (§1)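 Biotinylated His/Avi-tagged FAP ectodomain (human 26-760, mouse 26-761) at 0.01 nM, preincubated 24 h with peptides (14 concentrations, up to 1 μM) in pH 7.5 phosphate, 150 mM NaCl, 0.05% Tween20, 1% DMSO. Then 50 μM Z-Gly-Pro-AMC, 4 h at 22-24° C; AMC fluorescence (380/460 nm) gave IC50 from duplicate points.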

mouse FAP [2] = biological target: T2, mouse FAP (Mus musculus, UniProt P97321); experiment: Enzymatic FAP competition assay (Z-Gly-Pro-AMC fluorescence), mouse FAP; assay type: biochemical; conditions: read-out: m. FAP, Enz., IC50
T2 construct: biotinylated His, Avi tag, mouse FAP (26-761, FAP-M82Q5); His; Avi tag (biotinylated); purchased AcroBiosystems FAP-M82Q5
T2 sequence (P97321 26-761): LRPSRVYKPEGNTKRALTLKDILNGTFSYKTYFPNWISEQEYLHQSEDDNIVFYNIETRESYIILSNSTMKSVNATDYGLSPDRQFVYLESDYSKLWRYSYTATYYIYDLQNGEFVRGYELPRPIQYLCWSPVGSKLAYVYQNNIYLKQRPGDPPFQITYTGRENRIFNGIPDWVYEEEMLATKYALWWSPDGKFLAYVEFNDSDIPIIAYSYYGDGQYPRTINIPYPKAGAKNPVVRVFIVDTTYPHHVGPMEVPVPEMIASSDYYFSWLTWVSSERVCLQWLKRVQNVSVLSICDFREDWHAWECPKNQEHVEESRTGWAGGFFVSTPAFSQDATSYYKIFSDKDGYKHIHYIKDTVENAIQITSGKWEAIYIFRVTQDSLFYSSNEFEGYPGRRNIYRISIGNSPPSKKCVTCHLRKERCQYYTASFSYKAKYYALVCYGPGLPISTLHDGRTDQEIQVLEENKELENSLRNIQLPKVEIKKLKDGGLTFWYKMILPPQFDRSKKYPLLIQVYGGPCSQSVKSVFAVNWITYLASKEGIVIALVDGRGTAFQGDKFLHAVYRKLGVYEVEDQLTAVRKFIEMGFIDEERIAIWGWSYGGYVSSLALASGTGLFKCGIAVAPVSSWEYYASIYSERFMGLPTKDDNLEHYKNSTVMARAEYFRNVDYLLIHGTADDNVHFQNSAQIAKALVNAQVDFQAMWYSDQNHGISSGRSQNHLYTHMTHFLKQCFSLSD
How it was run: as §1

human FAP [3] = biological target: T1, human FAP; experiment: Surface plasmon resonance (SPR) for peptide affinity, human FAP; assay type: binding; conditions: read-out: h. FAP, SPR, KD
Experimental: Peptide affinities (KD) were determined by SPR using a Biacore™ 8K device (Cytiva) towards the following proteins: biotinylated His, Avi tag, human FAP (26-760, FAP-H82Q6), biotinylated His, Avi tag, mouse FAP (26-761, FAP-M82Q5), His tag, human DPP4 (34-766, DP4-H82E3), all purchased from AcroBiosystems and His tag, mouse DPP4 (29-760, 954-SE) from R&D Systems. The FAP proteins and their homologous were diluted to a concentration of 2 μg/mL into acetate buffer pH 5.5, then immobilized onto a CM5 sensorchip (Cytiva, BR-1005-30) to reach a response around 2000 R U. The running buffer HBS-EP+pH 7.6 (20× from Teknova CAT. No: H8022) contained 10 mM HEPES pH 7.6, 150 mM NaCl, 3 mM EDTA, 0.05% Tween20 and 2% DMSO. Experiments were carried out at 25° C. using a flow rate of 30 μL/min. Compounds were tested in single cycle kinetic mode at 8 different concentrations. Curve fitting was performed using the Biacore™ 8K evaluation software. The sensorgrams were fitted by applying a 1:1 binding model to calculate kinetic rate constants and equilibrium dissociation constants (KD).
For this assay, the setup had the same conditions (flow rate, running buffer, peptide dilution) as described above for the CM5 method. The oligo CAP reagent obtained in the CAPture Kit (Ref. 28920234) was 1/5 diluted into running buffer and used with a contact time of 300 s at a flow rate of 2 μL/min. The human and mouse FAP constructs described above were used (from AcroBiosystems or produced in house). The FAP proteins were diluted to a concentration of 2 μg/mL into acetate pH 5.5, 0.05% Tween20 and used with a contact time of 600 s at a flow rate of 10 μL/min. The peptides were tested with an association time of 280 s followed by a dissociation time of 3000 s at a flow rate of 30 μL/min. The regeneration was done using the regeneration solution (8 M guanidine-HCl, 1 M NaOH) as obtained with a contact time of 270 s at a flow rate of 10 μL/min. […] The compounds marked with an asterisk were tested against human and mouse DDP4.

mouse FAP [4] = biological target: T2, mouse FAP; experiment: Surface plasmon resonance (SPR) for peptide affinity, mouse FAP; assay type: binding
How it was run: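 Biotinylated His/Avi-tagged FAP ectodomains (human 26-760, mouse 26-761) captured or immobilized on Biacore sensor chips; peptides run at 25 °C in HBS-EP+ pH 7.6 with 2% DMSO, single-cycle kinetics, 8 concentrations. KD from 1:1 binding-model fit of sensorgrams.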

| IC50 (human FAP [1]) [pM] | IC50 (mouse FAP [2]) [pM] | Kd (human FAP [3]) [pM] | Kd (mouse FAP [4]) [pM] | Compound |
| --- | --- | --- | --- | --- |
| 380 | 1100 | 320 | 510 | CCCCC[C@@H]1NC(=O)[C@H](Cc2ccc(OCCNC(=O)COCCOCCOCCNC(=O)CC(CC(=O)NCCOCCOCCOCC(=O)NCCOc3ccc(C[C@@H]4NC(=O)[C@H](Cc5ccccc5)N(C)C(=O)CNC(=O)[C@H](CCCCNC(=O)N5CCN(CC(=O)O)CC5)NC(=O)[C@H]5CCCN5C(=O)[C@H](CC(=O)O)NC(=O)[C@H](Cc5ccc(O)cc5)NC(=O)CNC(=O)[C@H](Cc5c[nH]c6ccccc56)NC(=O)[C@H](CCCCC)NC4=O)cc3)NC(=O)CN3CCN(CC(=O)O)CCN(CC(=O)O)CCN(CC(=O)O)CC3)cc2)NC(=O)[C@H](Cc2ccccc2)N(C)C(=O)CNC(=O)[C@H](CCCCNC(=O)N2CCN(CC(=O)O)CC2)NC(=O)[C@H]2CCCN2C(=O)[C@H](CC(=O)O)NC(=O)[C@H](Cc2ccc(O)cc2)NC(=O)CNC(=O)[C@H](Cc2c[nH]c3ccccc23)NC1=O [Example M4] (I: cyclo(K([CO-Piperazinyl(4-CH2COOH)])G[NMeF][AEF][Ahp(2)]WGYD[dP]) / II: cyclo(K([CO-Piperazinyl(4-CH2COOH)])G[NMeF][AEF][Ahp(2)]WGYD[dP]); linker I:4-II:4 via X2) |
| 9 | 37 | < 7 | < 23 | CCCOCC[C@@H]1NC(=O)[C@H](Cc2ccc(CNC(=O)COCCOCCNC(=O)c3ccc(F)nc3)cc2)NC(=O)[C@H](Cc2ccccc2)N(C)C(=O)CNC(=O)CNC(=O)[C@H]2CCCN2C(=O)[C@H](CC(=O)O)NC(=O)[C@H](CCCCNC(=O)N2CCN(CC(=O)O)CC2)NC(=O)CNC(=O)[C@H](Cc2c[nH]c3ccccc23)NC1=O [Example C56, Gly-Gly-NMePhe-F(4amPEG2NHCOPy3(4F))-hS(Pr)-Trp-Gly-K(Copipzaa)-Asp-D-Pro] (cyclo(D[dP]GG[NMeF][Phe(4-CH2NH2)]([AEEA-Nicotinoyl(6-F)])[hSer](Propyl)WGK([CO-Piperazinyl(4-CH2COOH)]))) |
| 35 | 144 | < 43 | < 78 | CCCOCC[C@@H]1NC(=O)[C@H](Cc2ccc(CNC(=O)COCCOCCNC(=O)CC(CC(=O)NCCOCCOCC(=O)NCc3ccc(C[C@@H]4NC(=O)[C@H](Cc5ccccc5)N(C)C(=O)CNC(=O)CNC(=O)[C@H]5CCCN5C(=O)[C@H](CC(=O)O)NC(=O)[C@H](CCCCNC(=O)N5CCN(CC(=O)O)CC5)NC(=O)CNC(=O)[C@H](Cc5c[nH]c6ccccc56)NC(=O)[C@H](CCOCCC)NC4=O)cc3)NC(=O)CN3CCN(CC(=O)O)CCN(CC(=O)O)CCN(CC(=O)O)CC3)cc2)NC(=O)[C@H](Cc2ccccc2)N(C)C(=O)CNC(=O)CNC(=O)[C@H]2CCCN2C(=O)[C@H](CC(=O)O)NC(=O)[C@H](CCCCNC(=O)N2CCN(CC(=O)O)CC2)NC(=O)CNC(=O)[C@H](Cc2c[nH]c3ccccc23)NC1=O [Example M3] (I: cyclo(GG[NMeF][Phe(4-CH2NH2)][hSer](Propyl)WGK([CO-Piperazinyl(4-CH2COOH)])D[dP]) / II: cyclo(GG[NMeF][Phe(4-CH2NH2)][hSer](Propyl)WGK([CO-Piperazinyl(4-CH2COOH)])D[dP]); linker I:4-II:4 via X1) |
| 430 | 1100 | 410 | 640 | Lys(DOTA-Lu)-Gly-NMePhe-Tyr-Ahp-Trp-Gly-Tyr-Asp-D-Pro (cyclo(K(DOTA(Lu))G[NMeF]Y[Ahp(2)]WGYD[dP]); also: Lu complex) [Example C22] |
